The values below are quoted from earlier work in patent US4196187A, “Rumen-stable pellets” (Eastman Kodak Company, priority 1977, dated 1980).

The conditions of data set [1]: Example 1.

For `CSCCC(N)C(=O)O` (racemic) [DL - Methionone], the “Solubility g./100 g. water at 25° C.” value is reported as 4.0 g./100 g. water. As for `Cl.NCCCC[C@H](N)C(=O)O` [L-Lysine monohydrochloride], under “25° C., water”, the “soluble to the extent of” value is listed as “about 70 g./100 g. of water”. The “acidity of a saturated solution (pH)” value in data set [1] is reported as 5.5.
